Assay results from paper PMC6277198, “Molecular basis for activation of lecithin:cholesterol acyltransferase by a compound that increases HDL cholesterol” (eLife, 2018).
Changes are numbered by the printed parent chain.

Key:
Test in all cases: DHE acyltransferase assay with peptide-based HDLs
Type in all cases: biochemical
LCAT R244A = target: T1, LCAT R244A (Homo sapiens, UniProt P04180, R268A)
T1 construct: hydrolysis of 4-methylumbelliferyl palmitate (MUP) by full-length LCAT; made in house; host or cells: HEK293F (transient transfection, secreted)
T1 sequence (P04180 25-440 R268A): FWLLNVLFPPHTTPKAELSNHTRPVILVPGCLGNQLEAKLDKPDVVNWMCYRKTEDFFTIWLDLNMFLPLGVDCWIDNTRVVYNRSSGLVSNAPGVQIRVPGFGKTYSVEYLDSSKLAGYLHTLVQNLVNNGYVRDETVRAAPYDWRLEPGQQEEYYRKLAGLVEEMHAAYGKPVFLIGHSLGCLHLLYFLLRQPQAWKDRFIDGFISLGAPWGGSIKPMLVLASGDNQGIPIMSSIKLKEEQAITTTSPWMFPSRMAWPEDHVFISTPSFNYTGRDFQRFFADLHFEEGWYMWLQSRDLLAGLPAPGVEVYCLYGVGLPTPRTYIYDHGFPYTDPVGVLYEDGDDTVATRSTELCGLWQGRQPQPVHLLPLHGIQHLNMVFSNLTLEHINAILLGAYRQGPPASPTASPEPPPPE
Procedure: (§1) Peptide-based HDLs were used in this assay as there is no difference between peptide HDLs and ApoA-I HDLs in both HDL binding and acyltransferase assays ([Manthei et al., 2017]). The peptide HDLs were made using the ESP24218 peptide with the sequence […] ([Dassuex et al., 1999]; [Li et al., 2015]) with a DPPC:POPC:DHE ratio of 47:47:6 as previously described ([Manthei et al., 2017]). The assay was performed in 384-well low volume black microplates (Corning 4514) with a total assay volume of 16 μL. In each reaction, LCAT was diluted in assay buffer to 15 μg mL^−1 in the presence of either 1% DMSO or 10 μM 2 with 1% DMSO. Compound 2 was used in this assay because it has lower background fluorescence than 1. The DHE HDLs were diluted in 1X PBS with 1 mM EDTA and 5 mM β-mercaptoethanol. 8 μL of the HDLs were added to the plate, and the reactions were initiated with 8 μL of LCAT, so that LCAT was assayed at 7.5 μg mL^−1 with and without 5 μM compound with a range of DHE concentrations from 0 to 50 μM. The reactions were stopped after 25 min at 37 °C with the addition of 4 μL of stop solution (1X PBS with 1 mM EDTA, 5 U mL^−1 cholesterol oxidase (COx), and 7% Triton X100). Following the addition of stop solution, the plates were incubated for another 60 min at 37 °C to allow for the COx to react. After the plates were re-equilibrated at room temperature, fluorescence was determined on a SpectraMax plate reader with excitation at 325 nm and emission at 425 nm, with a 420 nm cutoff. Reactions without LCAT were used for background subtraction, and reactions without LCAT and stop solution lacking COx were used to generate a standard curve for DHE. Reactions were performed in triplicate with three independent experiments per LCAT variant. Data were processed via background subtraction to remove excess fluorescence that results from the higher concentrations of DHE. […] Outliers were removed using automatic outlier elimination within Prism. For statistical analysis, the Vmax for each variant was compared to WT using a one-way analysis of variance followed by Tukey’s multiple comparisons post-test in GraphPad Prism.
(§2) To determine EC50 values, compound 2 was titrated from 0.004 to 10 μM, and the DHE concentration was set at 50 μM. LCAT was diluted in assay buffer and compound 2 dilutions were made with assay buffer containing 5.3% DMSO. 1.5 μL compound was added, then 6.5 μL LCAT, followed by 8 μL DHE. Dilutions were adjusted so that LCAT was assayed at 7.5 μg mL^−1, as above. All values were background subtracted to buffer with the same concentration of compound 2. A standard curve was included in one experiment with DHE from 0 to 50 μM in order to adjust the final fluorescence values to a rate by dividing by the slope of the line and time (25 min), as above. Outliers were removed using automatic outlier elimination within Prism. For statistical analysis, the EC50 for each variant was compared to WT using a one-way analysis of variance followed by Tukey’s multiple comparisons post-test in GraphPad Prism.

LCAT R244H = target: T2, LCAT R244H (Homo sapiens, UniProt P04180, R268H)
T2 construct: hydrolysis of 4-methylumbelliferyl palmitate (MUP) by full-length LCAT; made in house; host or cells: HEK293F (transient transfection, secreted)
T2 sequence (P04180 25-440 R268H): T1 sequence (P04180 25-440 R268A) with A244H
Procedure: as §1, §2

LCAT Y51S/G71I = target: T3, LCAT Y51S/G71I (Homo sapiens, UniProt P04180, G95I/Y75S)
T3 construct: hydrolysis of 4-methylumbelliferyl palmitate (MUP) by full-length LCAT; made in house; host or cells: HEK293F (transient transfection, secreted)
T3 sequence (P04180 25-440 Y75S/G95I): T1 sequence (P04180 25-440 R268A) with Y51S, G71I, A244R
Procedure: as §1, §2

[1] = compound 2 titrated from 0.004 to 10 μM, DHE 50 μM
[2] = highest concentration tested, 10 μM compound 2

EC50 (LCAT R244A; [1]): 760 ± 200 nM
acyltransferase rate (LCAT R244A; [2]): 18 µM/h
EC50 (LCAT R244H; [1]): 4600 ± 2000 nM
acyltransferase rate (LCAT R244H; [2]): 26 µM/h
acyltransferase activity in the presence of compound 2 (LCAT Y51S/G71I; Y51S/G71I variant): failed to increase activity
DHE assay EC50 (LCAT Y51S/G71I; Y51S/G71I, compound 2 titrated from 0.004 to 10 μM, DHE 50 μM): no effect
Compound: O=C1CC(O)(C(F)(F)F)c2c(C3CCN(c4cnc(C(F)(F)F)cn4)CC3)n[nH]c2N1 (stereo not drawn) [compound 2, 4-Hydroxy-4-(trifluoromethyl)−3-(1-(5-(trifluoromethyl)pyrazin-2-yl)piperidin-4-yl)−4,5-dihydro-1H-pyrazolo[3,4-b]pyridin-6(7H)-one]
